Test results reported in patent publication US6830883B1, “Method for typing of minor histocompatibility antigen HA-1” (Rijksuniversiteit Leiden, priority 1997, dated 2004).
Where no end group is shown, it is not given here.

Tests used:
[1] = tested on: recombinant HLA-A2.1 and β2-microglobulin; experiment: HLA-A2.1 peptide binding assay (inhibition of binding of fluorescent standard peptide […], cell free); parameters: species or system human; conditions: for IC50: cell free, determined on the results of 4 experiments, read-out: IC50 (concentration that inhibited the binding of a fluorescent standard peptide to HLA-A2.1 by 50%); for binder category for HLA-A2.1: classified from the IC50
Protocol: a. Binding of HA-1^H and HA-1^R peptides to HLA-A2.1. The binding of HA-1^H and HA-1^R peptides were assayed for their ability to inhibit the binding of fluorescent peptide […] to recombinant HLA-A2.1 and β2-microglobulin in a cell free peptide binding assay. One representative experiment is shown.
A quantitative assay for HLA-A2.1 binding peptides based on the inhibition of binding of the flourescent labeled standard peptide Hbc 18-27 F to C6 ([…]) to recombinant HLA-A2.1 protein and β2-microglobulin was used ^26,27. In short, HLA-A2.1 concentrations yielding approximately 40-60% bound fluorescent standard peptide were used with 15 pmol/well (150 nM) β2-microglobulin (Sigma). Various doses of the test peptides were coincubated with 100 fmol/well (1 nM) fluorescent standard peptide. HLA-A2.1 and β2-microglobulin for 1 days at room temperature in the dark in a volume of 100 μl in assay buffer. The percent of MHC-bound fluoescence was determined by gel filtration and the 50% inhibitory dose was deduced for each peptide using one-site competition non-linear regression analysis with the prismgraph software. Synthetic peptides were manufactured on a Abimed 422 multiple peptide synthesizer (Abimed, Langenfeld, Germany) and were more than 90% pure as checked by reverse phase HPLC.

[2] = tested on: HA-1 specific T cell clones 3HA15, clone 15 and 5W38 (T2 target cells); experiment: 51Cr-release reconstitution assay: synthetic peptide on T2 cells with HA-1 specific CTL clones; assay type: cell-based, human; conditions: for recognition by HA-1 specific CTL clones / reconstitution of the HA-1 epitope: synthetic peptide titrated on T2 cells, 51Cr-release
Protocol: b. Reconstitution assay with different concentrations of synthetic mH HA-1 peptide with three HA-1 specific T cell clones, 3HA15, clone 15 and 5W38. Background lysis of T2 by the CTL in the absence of any peptide was for 3HA15 4%, for clone 15 10% and for 5W38 2%. Positive control lysis was for 3HA15 46%, for clone 15 47% and 5W38 48 48%.
b. Reconstitution assay with different concentrations of synthetic […] peptide with HA-1 specific T cells. The HA-1^R peptide was titrated and preincubated with T2 cells. Three HA-1 specific T cells clones, 5W38, 3HA15 and clone 15 were added and a 4 hr ^51Cr-release assay was performed. Background lysis of T2 by the CTL in the absence of any peptide was for 3HA15 4%, for clone 15 10% and for 5W38 2%. Positive control lysis was for 3HA15 46%, for clone 15 47% and 5W38 48%.
HPLC fractions and synthetic peptides were tested in a ^51Cr-release assay as described^24. 2500 ^51Cr labeled T2 cells in 25 μl were incubated with 25 μl peptide dissolved in Hanks 50 mM Hepes for 30 minutes at 37° C. Cytotoxic T cells were added in an endvolume of 150 μl. When HPLC peptide fractions were tested, T2 was incubated with 2 μg/ml MA2.1 during the ^51Cr labelling. After 4 hours at 37° C. the supernatants were harvested.

Row | Sequence | IC50 [1] [nM] | binder category for HLA-A2.1 [1] | EC50 ([2]; 3 different HA-1 specific CTL clones, T2 target cells, 4 hr, read-out: half maximal activity in CML (51Cr-release) assay) [nM] | recognition by HA-1 specific CTL clones / reconstitution of the HA-1 epitope [2] | binding affinity for HLA-A2.1, fold lower than the HA-1^H peptide ([1]; HA-1^R versus HA-1^H peptide) [fold] | peptide concentration needed for recognition, times higher than for the HA-1^H peptide ([2]; clone 3HA15) [times]
1 | VLHDDLLEA | 30 | high affinity binders | 0.15 to 0.2 | recognition by all three clones | – | –
2 | VLRDDLLEA | 365 | intermediate binders | – | One out of three clones (3HA15) tested showed recognition | 10 | 1000
3 | YXTDRVMTV [synthetic peptide of candidate m/z 550; X stands for isoleucine or leucine] | – | – | – | not able to reconstitute the HA-1 epitope | – | –
